Reference: the NIST ThermoML archive (doi:10.1016/j.fluid.2013.08.026)

Settings: for surface tension liquid-gas: Maximal bubble pressure; for mass density: 101.33 kPa, Liquid, Buoyancy - hydrostatic balance

CCCCCCCn1cc[n+](C)c1.[Br-] [1-heptyl-3-methylimidazolium bromide]
Settings | mass density [kg/m3] | surface tension liquid-gas [mN/m]
293.15 K | 1249 | 37.8
298.15 K | 1245.9 | 37.5
303.15 K | 1242.3 | 37.2
308.15 K | 1239.1 | 36.8
313.15 K | 1236 | 36.5
318.15 K | 1232.8 | 36.1
323.15 K | 1229.7 | 35.9
328.15 K | 1226.4 | 35.6
333.15 K | 1222.8 | 35.3
338.15 K | 1219.9 | 35
343.15 K | 1216.6 | 34.6
